For series [1], the target named is T1, hPD-L1 (Homo sapiens, UniProt Q9NZQ7). The series can be described thus: hPD-L1 binding of [35S]-SPAM after incubation in 25% human serum. It is filed as in vitro ADME. Details: designed from A18 to T239 with a methionine added to the N-terminus; hexahistidine tag (C); made in house. As to conditions: 37° C. The procedure:
We performed two complementary assays to determine what effect serum has on the SPAM/hPD-L1 interaction.
In a complementary test, SPAM was in vitro translated and [^35S]-labeled as described above. After purification as above, the [^35S]-labeled peptide-RNA fusions were incubated with DMEM media supplemented with 25% (v/v) single donor human plasma at 37° C. in triplicate for 0, 60, 120, 240 and 480 min. The binding of serum incubated peptides was then evaluated on hPD-L1 immobilized beads using 75 pmol hPD-L1 immobilized on streptavidin agarose beads (Thermo Fisher scientific) in DMEM supplemented with 25% Serum buffer and 0.02 mM biotin at 4° C. for 1 h. The supernatant was removed and was counted. The beads were subsequently washed three times with 1 mL of blocking buffer and the washes were also counted. Finally, the beads were resuspended in 1 mL of blocking buffer and were counted separately. The ratio of the counts remaining on the beads to the total counts added to the binding reaction (the sum of the counts for supernatant, washes, and beads) was calculated to determine the percent bound.
Target sequence in this assay (Q9NZQ7 with tags, fused parts or gaps): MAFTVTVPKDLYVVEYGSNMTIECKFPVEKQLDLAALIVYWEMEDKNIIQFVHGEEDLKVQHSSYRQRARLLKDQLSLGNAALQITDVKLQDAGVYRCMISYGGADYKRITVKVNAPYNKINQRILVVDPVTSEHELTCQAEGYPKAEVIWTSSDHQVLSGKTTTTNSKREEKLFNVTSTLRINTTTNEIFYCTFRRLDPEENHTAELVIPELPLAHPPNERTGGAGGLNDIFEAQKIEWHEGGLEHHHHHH

Series [2] can be described thus: Serum stability of ROX-SPAM by HPLC. It is filed as in vitro ADME. As to conditions: 25% human serum, 37° C., up to five hours.
Procedure: We first tested SPAM peptide stability by performing an HPLC-based assay to test if SPAM is degraded by human serum. We incubated ROX-labeled SPAM with 25% human serum at 37° C., took aliquots at different time points, then analyzed the products using HPLC.
At times 0, 15, 30, 120 and 300 min, 40 μL was removed and protein precipitated by the addition of 80 μL ethanol. Samples were centrifuged for 10 min at 16,000×g and the supernatant removed for HPLC analysis. A total of 100 μL volume was injected in a HPLC gradient of 10^−95% Buffer B over 15 minutes (Buffer A: dH2O with 0.1% (v/v) TFA, Buffer B: CH3CN+0.1% (v/v) TFA). Detection was performed at 570 nm.
For series [3], the target named is T2, hPD-L1 expressed on the surface of Chinese hamster ovary (CHO) cells (CHO-hPD-L1) (Homo sapiens, UniProt Q9NZQ7).
T2 construct: expressed in transfected cells; host or cells: CHO
T2 sequence (Q9NZQ7 19-290): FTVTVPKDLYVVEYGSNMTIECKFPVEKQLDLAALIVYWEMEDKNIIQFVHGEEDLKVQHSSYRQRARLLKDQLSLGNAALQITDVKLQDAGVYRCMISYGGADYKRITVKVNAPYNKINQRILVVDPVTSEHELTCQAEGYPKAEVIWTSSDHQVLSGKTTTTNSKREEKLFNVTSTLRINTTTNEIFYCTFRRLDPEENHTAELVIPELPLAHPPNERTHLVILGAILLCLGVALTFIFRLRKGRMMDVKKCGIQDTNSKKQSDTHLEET
The series is described as follows: Antibody competition by flow cytometry on CHO-hPD-L1 cells. Format: cell-based. The text has this:
To do this, we measured SPAM peptide inhibition of anti-PD-L1 antibody binding to hPD-L1 expressed on the surface of Chinese hamster ovary (CHO) cells (CHO-hPD-L1). […] Cells were washed again and analyzed by flow cytometry (FIG. 5B-C).
Cells were then washed three times with cold serum free DMEM. Cells were subsequently processed by flow cytometry with a BD FACSCalibur system using the FL1 channel. FlowJo v10.1 was used to gate to the major population and median FL1 fluorescence reported.
Background: Flow cytometry measures light scatter and fluorescence of single cells or particles in a stream.

For the next series, the target named is T3, human PD-L2 (hPD-L2) (Homo sapiens, UniProt Q9BQ51).
T3 construct: The hPD-L2* vector included amino acids L20-T220, an Avi Tag and a hexahistidine tag; hexahistidine tag; made in house; host or cells: Expi293F
T3 sequence (Q9BQ51 20-220): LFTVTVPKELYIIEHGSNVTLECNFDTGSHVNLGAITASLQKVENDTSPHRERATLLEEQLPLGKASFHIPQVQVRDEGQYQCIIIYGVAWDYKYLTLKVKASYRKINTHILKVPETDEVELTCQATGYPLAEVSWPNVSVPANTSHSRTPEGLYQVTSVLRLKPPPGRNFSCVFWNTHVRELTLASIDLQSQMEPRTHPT
The series is described as follows: Radiolabeled [35S] peptide binding assay on hPD-L2*. As to conditions: [35S]-labeled peptide. The procedure: (§1) SPAM Peptide Selectively Binds to hPD-L1. SPAM was also tested for binding specificity towards mouse PD-L1 (mPD-L1) and human PD-L2 (hPD-L2) using radioactive binding assays. SPAM peptide mRNA was translated in vitro in the presence of [^35S]-methionine to generate [^35S]-labeled SPAM peptide.
(§2) [^35S]-labeled peptides were translated as described above by including 2 μCi labeled methionine (Perkin Elmer) per 10 pmol of template in the translation reaction. Each peptide was tested with a […] (for X9-library derived peptides) (SEQ ID NO: 11) or a […] (for X17-library derived peptides) (SEQ ID NO: 12) C-terminal sequence. […] The supernatant was removed and was counted. The beads were subsequently washed three times with 1 mL of blocking buffer and the washes were also counted. Finally, the beads were resuspended in 1 mL of blocking buffer and were counted separately. The ratio of the counts remaining on the beads to the total counts added to the binding reaction (the sum of the counts for supernatant, washes, and beads) was calculated to determine the percent bound.

For series [4], the target named is T1, hPD-L1. The series can be described thus: Fluorescence polarization of ROX-labeled SPAM with glycosylated hPD-L1*. Particulars: T=22° C., 100 nM ROX-SPAM, read-out: dissociation constant (KD) for hPD-L1*. Details: The hPD-L1* vector included amino acids A18-T239, an Avi Tag and a hexahistidine tag; hexahistidine tag; made in house; host or cells: Expi293F. Format: binding. As for the experimental part:
To evaluate the affinity of SPAM for hPD-L1 and hPD-L1*, we measured the KD by fluorescence polarization. […] The resulting values were plotted against the concentration of hPD-L1 or hPD-L1* and fit to a one-site saturation binding model with GraphPad Prism.
A stock solution of hPD-L1 or hPD-L1* with a 5 μM starting concentration was prepared and serially diluted to concentrations ranging from 5 μM to 2.4 nM. […] The fluorescence polarization of each sample was measured on a Synergy H4 Hybrid Multi-Mode Microplate Reader. Each measurement was carried out in triplicate and the mean value was calculated. The values were fit to a one-site saturation binding model in GraphPad Prism to obtain the corresponding equilibrium dissociation constants.
Target sequence in this assay (Q9NZQ7 18-239): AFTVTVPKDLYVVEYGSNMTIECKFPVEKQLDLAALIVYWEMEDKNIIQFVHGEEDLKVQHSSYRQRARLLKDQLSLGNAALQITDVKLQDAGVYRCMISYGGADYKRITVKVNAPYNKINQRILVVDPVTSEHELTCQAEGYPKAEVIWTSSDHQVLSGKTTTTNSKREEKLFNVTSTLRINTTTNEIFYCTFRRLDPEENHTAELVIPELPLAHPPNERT
Background: In fluorescence polarisation assays a small probe gives low polarisation when free and higher when bound to something large.

In series [5] the target is T1, hPD-L1. The series is described as follows: Radiolabeled [35S] peptide binding assay on glycosylated hPD-L1*. Details: The hPD-L1* vector included amino acids A18-T239, an Avi Tag and a hexahistidine tag; hexahistidine tag; made in house; host or cells: Expi293F. As for the experimental part:
as §1, §2
Target sequence in this assay (Q9NZQ7 18-239): as above

Entries after “also recorded” stand apart in the source; their conditions may differ.

A word on the Kd: it is the equilibrium constant for the complex coming apart. For `C#CC[C@H](NC(=O)CNC(=O)[C@H](CO)NC(=O)[C@H](C)NC(=O)[C@H](Cc1ccc(O)cc1)NC(=O)[C@H](Cc1c[nH]cn1)NC(=O)[C@H](CC(C)C)NC(=O)[C@@H](NC(=O)[C@H](Cc1c[nH]c2ccccc12)NC(=O)[C@H](Cc1ccccc1)NC(=O)[C@H](CCCCN)NC(=O)[C@H](CC(N)=O)NC(=O)[C@H](CC(C)C)NC(=O)[C@@H](NC(=O)[C@H](Cc1c[nH]cn1)NC(=O)[C@H](CC(=O)O)NC(=O)[C@H](CC(C)C)NC(=O)[C@H](Cc1ccccc1)NC(=O)[C@@H](NC(=O)[C@@H]1CCCN1C(=O)[C@@H](N)CCSC)[C@@H](C)CC)[C@@H](C)CC)[C@@H](C)CC)C(N)=O` (stereo in doubt) [SPAM], the “loss of binding in presence of human serum” value at hPD-L1 [1] was approximately 25%. Also, the “binding to immobilized hPD-L1 after serum incubation” value on hPD-L1 [1] (eight hours) is “no further decrease”; on hPD-L1 [1] (four hours) it was “slight decrease”; on hPD-L1 [1] (two hours), “No decrease”. The “degradation in human serum (HPLC)” value in series [2] is recorded as “stable”. Besides, in series [3] (pre-incubation 30 min 4° C., 0-20 μM, SPAM effect at 20 μM, 1 nM Atezolizumab, 10 nM Avelumab), the “Fluorescein-Atezolizumab and Fluorescein-Avelumab binding to CHO-hPD-L1 after pre-incubation” value was “significant decrease”. Moreover, the “blocking of Fluorescein-16373 and Fluorescein-16377 in CHO-hPD-L1 cells” value in series [3] (pre-treatment 0-20 μM, 50 nM antibody) is “blocking”. Also, the “binding to hPD-L2” value at human PD-L2 (hPD-L2) is reported as “no significant binding; also recorded: essentially no binding”. For the same compound, the Kd on hPD-L1 [4] was determined as 0.067 µM. In addition, the “[35S]-labeled peptide capture by hPD-L1*” value at hPD-L1 [5] is listed as “captured”.

For the origin of these results see US12643935B2, “PD-L1 binding peptides” (UNIVERSITY OF SOUTHERN CALIFORNIA, priority 2020, dated 2026).
